These results are taken from publication PMC7613515, “Reading and erasing of the phosphonium analogue of trimethyllysine by epigenetic proteins” (Communications Chemistry, 2022).

One experiment concerns four of the readers. The experiment is described as follows: ITC, reader domains taken together. In kind it is binding, human. As to conditions: four of the five readers. The text has this: We investigated the thermodynamics of association of the H3KP4me3 peptide with five representative human reader domains containing either a PHD zinc finger or TTD, i.e. KDM5APHD3 (JARID1A-PHD3, residues M1489–V1641)[10], TAF3PHD (R857–K924)[22], BPTFPHD (L2583–N2751)[23], SGF29TTD (R115–K293)[24] and KDM4ATTD (JMJD2A, Q897-P1011)[25], selected on the basis of their preference for binding Ν^ε-trimethyllysine over other (non)methylation marks (Kme0 < Kme1 < Kme2 < Kme3), and their domain and aromatic cage diversity. The recombinant readers were produced in E. coli following reported procedures. Isothermal titration calorimetric (ITC) analyses were used to determine the dissociation constant (Kd), the Gibbs free energy of binding (ΔG°), the enthalpy of binding (ΔH°), and the entropy of binding (ΔS°). […] (Table 1, Fig. 2, Supplementary Fig. 1).
ITC studies followed a reported procedure. […] Histone peptide titrations were performed with the same reader batches. Solutions of the reader in buffer (25–40 µM) and of the histone H3 peptide (350–600 µM) in buffer were prepared. […] Heats of dilution for histone peptides determined in control experiments were subtracted from the titration binding data. Data were analysed with Origin 6.0 (Microcal Inc., Northampton, Massachusetts, USA) and curve fitting with one-site binding mode was applied.
On the technique in general: In ITC the heat of successive injections is recorded.

Another experiment has as its system KDM4AJmjC (M1–L359). The experiment is described as follows: MALDI-TOF demethylation assay, KDM4AJmjC. In kind it is biochemical, human. The settings on record: KDM4AJmjC 2.4 µM, peptide 5.0 µM, 1 hr, duplicates. The text has this: (§1) To investigate whether H3KP9me3 can be demethylated by other human KDM4 subfamily members, recombinant KDM4AJmjC (M1–L359) and KDM4DJmjC (M1–L358) were produced in E. coli following an adaption of literature procedures[38],[39]. […] To test the ability of KDM3 and KDM7 subfamily representatives to demethylate H3KP9me2 or H3KP9me3, KDM3AJmjC (T515–S1317) and KDM7BJmjC (M37–N483) were produced using baculovirus/sf9 and E. coli expression systems, respectively[40],[41]. The synthesis of a histone H3 mimic peptide H3KP9me2 substrate is challenging as the tri-alkylated phosphine group is susceptible to oxidation during synthesis of the protected amino acid and during SPPS requiring oxygen-free conditions. Thus, to investigate if KDM3AJmjC or KDM7BJmjC can catalyse demethylation of H3KP9me2, an appropriate H3KP9me2 substrate was prepared in situ from H3KP9me3 using KDM4EJmjC (2.0 µM), in the presence of KDM3AJmjC (2.0 µM) or KDM7BJmjC (2.0 µM).
(§2) A Bruker Daltonics MALDI-TOF/TOF AutoflexSpeed machine and Bruker MTP 384 target plates (polished steel BC, Part: 8280781) were used. The machine was controlled using Flex control (v. 3.4 build 135.10) and Compass for flex series (v. 1.4) software. Measurements were in the positive ion mode with the reflectron mode enabled. […] Samples were then analysed by MALDI-TOF. […]

In the next experiment the test system is KDM3AJmjC (T515–S1317). Nature of the experiment: MALDI-TOF demethylation assay, KDM3AJmjC. In kind it is biochemical. As to conditions: 1 hr.
Excerpt: as §1, §2

Consider `C[C@H](N)C(=O)N[C@@H](CCCNC(=N)N)C(=O)N[C@H](C(=O)N[C@@H](CCCC[P+](C)(C)C)C(=O)N[C@@H](CCC(N)=O)C(=O)N[C@H](C(=O)N[C@@H](C)C(=O)N[C@@H](CCCNC(=N)N)C(=O)N[C@@H](CCCCN)C(=O)N[C@@H](CO)C(N)=O)[C@@H](C)O)[C@@H](C)O` [H3KP4me3], for which the “binding relative to H3K4me3” value with four of the readers was “stronger complex formation than with H3K4me3”.
Regarding “ARTKQTAR(KPme3)STGGKA [H3KP9me3, histone H3 residues 1–15 with trimethylphosphonium lysine analogue at position 9]”, the “demethylation” value is recorded as “substantial turnover to H3KP9me2” in the experiment on KDM4AJmjC (M1–L359) and “do not catalyse demethylation of H3K9me3 (as anticipated) or H3KP9me3” in the experiment on KDM3AJmjC (T515–S1317) (KDM3AJmjC 2.0 µM, H3KP9me2 prepared in situ with KDM4EJmjC). For the same compound, the “demethylation in combination with KDM4EJmjC” value in the experiment with KDM3AJmjC (T515–S1317) (KDM3AJmjC 2.0 µM plus KDM4EJmjC 2.0 µM, peptide 5.0 µM) is recorded as “produced H3KP9me2 (due to KDM4EJmjC catalysis), but did not result in masses consistent with H3KP9me1 or H3KP9”.
